From ChEMBL document CHEMBL2146442, “High-affinity and selective dopamine D₃ receptor full agonists” (Bioorg Med Chem Lett, 2012) come the findings set out here.

For test [1], the target named is D(3) dopamine receptor (Rattus norvegicus, UniProt P19020). Put plainly: Displacement of [3H]-R(+)-7-OHDPAT from dopamine D3 receptor in rat brain homogenates. The format is tissue-based. For orientation: In a radioligand displacement assay an active substance lowers the binding of a labelled ligand.
A short description of test [2]: Displacement of [3H]Spiperone from dopamine D2 like receptor in rat brain homogenates. The format is tissue-based.
The nature of test [3]: Displacement of [3H]SCH23390 from dopamine D1 like receptor in rat brain homogenates. The format is tissue-based.
A further test is filed under the species Rattus norvegicus. Put plainly: Selectivity ratio of Ki for dopamine D1 like receptor in rat brain homogenates to Ki for dopamine D3 receptor in rat brain homogenates. The format is tissue-based.
Test [4] concerns the target D(3) dopamine receptor (Homo sapiens, UniProt P35462). The experiment in a line: Agonist activity at human dopamine D3 receptor expressed in CHO cells by mitogenesis assay. The format is functional, cell-based.
Test [5] is described as follows: Selectivity ratio of dopamine D2 receptor to dopamine D3 receptor.
The nature of test [6]: Selectivity ratio of dopamine D1 like receptor to dopamine D3 receptor.

D(3) dopamine receptor (Homo sapiens, UniProt P35462), sequence (P35462 whole entry): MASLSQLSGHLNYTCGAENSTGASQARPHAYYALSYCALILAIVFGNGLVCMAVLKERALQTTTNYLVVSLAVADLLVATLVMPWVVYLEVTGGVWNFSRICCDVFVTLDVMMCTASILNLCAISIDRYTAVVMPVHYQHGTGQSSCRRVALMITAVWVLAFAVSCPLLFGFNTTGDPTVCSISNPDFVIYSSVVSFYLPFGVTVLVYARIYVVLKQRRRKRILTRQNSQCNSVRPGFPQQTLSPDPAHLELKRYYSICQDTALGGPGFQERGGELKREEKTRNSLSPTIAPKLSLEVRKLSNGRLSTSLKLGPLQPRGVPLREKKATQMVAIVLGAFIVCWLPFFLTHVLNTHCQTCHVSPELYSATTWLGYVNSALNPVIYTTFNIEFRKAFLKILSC
D(3) dopamine receptor (Rattus norvegicus, UniProt P19020), sequence (P19020 whole entry): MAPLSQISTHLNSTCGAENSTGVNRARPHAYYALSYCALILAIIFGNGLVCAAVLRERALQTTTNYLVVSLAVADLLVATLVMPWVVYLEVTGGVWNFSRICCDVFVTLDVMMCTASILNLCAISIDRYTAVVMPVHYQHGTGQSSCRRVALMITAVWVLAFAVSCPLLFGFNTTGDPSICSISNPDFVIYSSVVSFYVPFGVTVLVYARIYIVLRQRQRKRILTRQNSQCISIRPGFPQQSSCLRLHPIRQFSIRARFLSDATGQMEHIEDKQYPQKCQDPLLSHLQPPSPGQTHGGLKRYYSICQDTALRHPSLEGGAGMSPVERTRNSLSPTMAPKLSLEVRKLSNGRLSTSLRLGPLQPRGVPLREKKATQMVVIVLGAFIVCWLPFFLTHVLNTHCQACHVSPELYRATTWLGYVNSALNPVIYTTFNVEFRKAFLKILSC

Consider `CCCN(CC[C@H]1CC[C@H](NC(=O)c2cccc(-c3noc(C)n3)c2)CC1)[C@H]1CCc2nc(N)sc2C1`, for which the figures for the Ki (on D(3) dopamine receptor [1]; in test [2]; in test [3]) were 0.73 nM, 359 nM and 9940 nM, respectively. In addition, the Ratio Ki in the test listed under Rattus norvegicus was found to be 13700. The EC50 – broadly, the midpoint of the concentration-response curve – at D(3) dopamine receptor [4] was 4.3 nM.
In the case of `CCCN(CC[C@H]1CC[C@H](NS(=O)(=O)c2cccnc2Cl)CC1)[C@H]1CCc2nc(N)sc2C1`, the figures for the Ki (on D(3) dopamine receptor [1]; in test [2]; in test [3]) were 0.38 nM, 170 nM and 17400 nM, respectively. Besides, the Ratio Ki in the test listed under Rattus norvegicus turned out to be 46300. Moreover, it took 1.5 nM to reach a half-maximal effect on D(3) dopamine receptor [4] (EC50).
With `O=C(NCC[C@@H](O)CN1CCN(c2cccc(Cl)c2Cl)CC1)c1cc2ccccc2[nH]1`, the Selectivity ratio in test [5] was 100; in test [6] it was above 1000.
